Source: publication PMC4394048 (Molecular cancer therapeutics, 2015)

Columns and labels:
OATP1B3/MDR1 = settings: MDCKII-OATP1B3/MDR1 versus MDCKII-OATP1B3 cells, p < 0.01
[1] = Mdr1a/1b−/− mice, intravenous administration; cited from earlier work
[2] = cited from earlier work
OATP1B1/MDR1 = settings: MDCKII-OATP1B1/MDR1 versus MDCKII-OATP1B1 cells, p < 0.001
[3] = Docetaxel distribution in Slco1b2−/− and wild-type mice; settings: for mean plasma clearance ± S.D.: dose/AUC
OATP1B3 [4] = target: T1, OATP1B3 (Homo sapiens, UniProt Q9NPD5)
T1 sequence (Q9NPD5 whole entry): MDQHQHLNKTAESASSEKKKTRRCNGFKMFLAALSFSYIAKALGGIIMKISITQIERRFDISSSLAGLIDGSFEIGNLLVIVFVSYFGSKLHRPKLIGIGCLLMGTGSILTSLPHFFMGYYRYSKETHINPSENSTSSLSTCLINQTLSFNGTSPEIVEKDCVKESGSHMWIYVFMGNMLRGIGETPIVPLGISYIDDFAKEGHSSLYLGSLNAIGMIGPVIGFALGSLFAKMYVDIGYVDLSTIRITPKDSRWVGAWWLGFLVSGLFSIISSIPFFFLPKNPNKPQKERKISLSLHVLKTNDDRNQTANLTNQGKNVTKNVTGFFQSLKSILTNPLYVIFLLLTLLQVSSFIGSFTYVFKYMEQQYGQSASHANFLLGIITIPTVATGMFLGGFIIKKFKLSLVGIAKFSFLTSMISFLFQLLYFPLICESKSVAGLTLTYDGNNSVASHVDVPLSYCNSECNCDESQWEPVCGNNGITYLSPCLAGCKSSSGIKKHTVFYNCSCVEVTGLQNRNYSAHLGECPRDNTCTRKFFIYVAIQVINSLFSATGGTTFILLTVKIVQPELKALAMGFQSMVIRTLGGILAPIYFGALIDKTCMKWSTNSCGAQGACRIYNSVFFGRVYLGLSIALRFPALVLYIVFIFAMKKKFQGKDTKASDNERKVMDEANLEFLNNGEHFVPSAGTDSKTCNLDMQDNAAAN

MDR1 = MDR1 (Homo sapiens, UniProt P08183); settings: MDCKII-MDR1 versus MDCKII-Co cells over time; 0.1 μM; p < 0.05
MDR1, sequence (P08183 whole entry): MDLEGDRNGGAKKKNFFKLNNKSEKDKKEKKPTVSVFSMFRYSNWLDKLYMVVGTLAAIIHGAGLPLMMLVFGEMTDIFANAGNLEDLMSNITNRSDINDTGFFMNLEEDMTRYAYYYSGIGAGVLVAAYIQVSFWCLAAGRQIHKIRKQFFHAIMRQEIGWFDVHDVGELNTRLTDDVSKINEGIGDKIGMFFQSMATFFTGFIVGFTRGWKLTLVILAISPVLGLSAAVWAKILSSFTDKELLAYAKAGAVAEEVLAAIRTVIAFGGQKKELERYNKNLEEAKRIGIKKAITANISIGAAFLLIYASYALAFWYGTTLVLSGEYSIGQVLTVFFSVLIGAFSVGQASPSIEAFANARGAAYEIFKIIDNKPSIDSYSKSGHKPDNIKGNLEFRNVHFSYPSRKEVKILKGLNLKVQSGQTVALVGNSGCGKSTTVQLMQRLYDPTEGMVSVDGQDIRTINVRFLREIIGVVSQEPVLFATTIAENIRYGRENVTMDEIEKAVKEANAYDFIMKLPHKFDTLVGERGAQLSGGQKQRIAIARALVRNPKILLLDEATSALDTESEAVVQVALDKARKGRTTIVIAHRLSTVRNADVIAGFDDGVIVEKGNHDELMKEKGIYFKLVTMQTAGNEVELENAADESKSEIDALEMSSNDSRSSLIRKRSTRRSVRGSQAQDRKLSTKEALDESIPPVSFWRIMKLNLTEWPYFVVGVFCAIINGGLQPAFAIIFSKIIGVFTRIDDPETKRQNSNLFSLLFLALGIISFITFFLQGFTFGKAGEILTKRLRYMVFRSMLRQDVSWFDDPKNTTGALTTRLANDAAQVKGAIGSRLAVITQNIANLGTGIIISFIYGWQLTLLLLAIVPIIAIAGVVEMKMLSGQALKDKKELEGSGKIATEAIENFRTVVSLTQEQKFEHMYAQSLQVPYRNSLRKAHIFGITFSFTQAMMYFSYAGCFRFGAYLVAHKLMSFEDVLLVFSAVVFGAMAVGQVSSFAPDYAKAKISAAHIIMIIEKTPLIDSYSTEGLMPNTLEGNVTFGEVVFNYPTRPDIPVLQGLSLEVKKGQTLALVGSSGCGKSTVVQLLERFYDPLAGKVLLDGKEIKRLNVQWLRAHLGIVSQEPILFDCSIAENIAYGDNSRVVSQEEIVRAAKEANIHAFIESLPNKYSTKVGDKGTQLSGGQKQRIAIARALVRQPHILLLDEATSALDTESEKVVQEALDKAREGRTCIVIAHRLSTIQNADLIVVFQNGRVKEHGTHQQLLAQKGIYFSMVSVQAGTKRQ

OATP1B3 [5] = target: T1, OATP1B3; experiment: in vitro
[6] = substrate: CC(=O)O[C@@]12CO[C@@H]1C[C@H](O)[C@@]1(C)C(=O)[C@H](O)C3=C(C)[C@@H](OC(=O)[C@H](O)[C@@H](NC(=O)OC(C)(C)C)c4ccccc4)C[C@@](O)([C@@H](OC(=O)c4ccccc4)[C@H]21)C3(C)C; experiment: cells, lysate or membranes named; settings: other: HeLa cells; 0.1-100 μM; Michaelis-Menten fit; 37.0 °C

Row | Molecule | docetaxel transported into the apical compartment (OATP1B3/MDR1; 0.5h up to 3h, 0.1 μM) | intracellular docetaxel (OATP1B3/MDR1; all time points) | AUC of docetaxel in knockout versus wild-type mice [1] | increase in docetaxel clearance ([2]; CYP3A4*1B and CYP3A5*1A alleles (CYP3A4/5*2 haplotype)) | docetaxel excreted in bile ([2]; humans) | docetaxel excreted in urine ([2]; humans) | difference in drug clearance amongst patients ([2]; patients receiving the same treatment regimens) | increase in odds of developing grade 4 neutropenia ([2]; with a 50% decrease in docetaxel clearance) | docetaxel transported into the apical compartment (OATP1B1/MDR1; 0.5h up to 3h, 0.1 μM) | intracellular docetaxel (OATP1B1/MDR1; all time points) | plasma clearance in Slco1b2−/− mice, lower than wild-type mice ([3]; 1 mg/kg intravenous, p < 0.05) | mean plasma clearance ± S.D. ([3]; Slco1b2−/− mice, 1 mg/kg intravenous) | docetaxel liver concentrations ([3]; Slco1b2−/− versus wild-type mice, 30 min after 1 mg/kg intravenous) | mean plasma clearance ± S.D. ([3]; wild-type mice, 1 mg/kg intravenous) | Vmax (OATP1B3 [4]) | apical docetaxel accumulation (basal-to-apical) (MDR1) | Km (OATP1B3 [5]) | Km [6] | Vmax [6]
1 | CC(=O)O[C@@]12CO[C@@H]1C[C@H](O)[C@@]1(C)C(=O)[C@H](O)C3=C(C)[C@@H](OC(=O)[C@H](O)[C@@H](NC(=O)OC(C)(C)C)c4ccccc4)C[C@@](O)([C@@H](OC(=O)c4ccccc4)[C@H]21)C3(C)C [docetaxel] | significantly higher | significantly lower | similar | 64% | ~ 75% | ~ 5% | up to 10 fold | more than 4 fold | significantly higher | significantly lower | 83% | 1.22 ± 0.583 mL/min/kg | no significant difference | 473 ± 124 mL/h | 480 ± 90 pmol/mg/min | significantly higher | 14 ± 6.5 µM |  | 
2 | Oatp1b2 (Rattus norvegicus) (protein) MDHTQQSRKAAEAQPSRSKQTRFCDGFKLFLAALSFSYICKALGGVVMKSSITQIERRFDIPSSISGLIDGGFEIGNLLVIVFVSYFGSKLHRPKLIGIGCFIMGIGSILTALPHFFMGYYKYAKENDIGSLGNSTLTCFINQMTSPTGPSPEIVEKGCEKGLKSHMWIYVLMGNMLRGIGETPIVPLGISYLDDFAKEGHTSMHLGTLHTIAMIGPILGFIMSSVFAKIYVDVGYVDLNSVRITPNDARWVGAWWLSFIVNGLLCITSSIPFFFLPKIPKRSQEERKNSVSLHAPKTDEEKKHMTNLTKQEEQDPSNMTGFLRSLRSILTNEIYVIFLILTLLQVSGFIGSFTYLFKFIEQQFGRTASQANFLLGIITIPTMATAMFLGGYIVKKFKLTSVGIAKFVFFTSSVAYAFQFLYFPLLCENKPFAGLTLTYDGMNPVDSHIDVPLSYCNSDCSCDKNQWEPICGENGVTYISPCLAGCKSFRGDKKPNNTEFYDCSCISNSGNNSAHLGECPRYKCKTNYYFYIILQVTVSFFTAMGSPSLILILMKSVQPELKSLAMGFHSLIIRALGGILAPIYYGAFIDRTCIKWSVTSCGKRGACRLYNSRLFGFSYLGLNLALKTPPLFLYVVLIYFTKRKYKRNDNKTLENGRQFTDEGNPDSVNKNGYYCVPYDEQSNETPL |  |  |  |  |  |  |  |  |  |  |  |  |  |  |  |  |  | 20.8 ± 7.4 µM | 1548 ± 186 pmol/mg/min
